Results on 10 compounds are retold here after patent publication US20250115628A1, “FLUORINATED FLUOROPHORES” (HOWARD HUGHES MEDICAL INSTITUTE, priority 2023, published 2025).

Data set [1] is described as follows: Quantum yield determination. It counts as physicochemical. To be noted: rhodamine derivatives; 10 mM HEPES, pH 7.3. Here is the method:
All reported absolute fluorescence quantum yield values (Φf) were measured using a Quantaurus-QY spectrometer (model C11374, Hamamatsu). This instrument uses an integrating sphere to determine photons absorbed and emitted by a sample. Measurements were carried out using dilute samples (A<0.1), and self-absorption corrections were performed using the instrument software.^81

The nature of data set [2]: General UV-vis and fluorescence spectroscopy. It counts as physicochemical. Conditions: rhodamine derivatives; 10 mM HEPES, pH 7.3. Here is the method: Spectroscopy was performed using 1^−cm path length, 3.5^−mL quartz cuvettes or 1^−cm path length, 1.4^−mL semi-micro quartz cuvettes from Starna Cells. All measurements were taken at ambient temperature (22±2° C.). Absorption spectra were recorded on a Cary Model 100 spectrometer (Agilent), and fluorescence spectra were recorded on a Cary Eclipse fluorometer (Varian). The spectra, maximum absorption wavelength (labs), extinction coefficient at λabs (8), and maximum emission wavelength (em) were measured in 10 mM HEPES, pH 7.3 buffer (rhodamines and Malachite Green derivative 49) or 0.1 M NaOH (fluoresceins); the reported values for e are averages (n=3). Normalized spectra are shown for clarity.

Data set [3] is described as follows: Determination of KL-Z (lactone-zwitterion equilibrium constant). It counts as physicochemical. Set-up: key: KL-Z = (εdw/εmax)/(1−εdw/εmax); εdw measured in 1:1 dioxane/water. Conditions: rhodamine derivatives; 1:1 dioxane:H2O. As to the method: KL-Z was calculated using the following equation:^16, 18 KL-Z=(εdw/εmax)/(1−εdw/εmax). εdw is the extinction coefficient of the dyes in a 1:1 (v/v) dioxane/water solvent mixture; this dioxane/water mixture was chosen to give the maximum spread of KL-Z values across all classes of rhodamines.^18 εmax refers to the maximal extinction coefficients measured in different solvent mixtures empirically determined depending on dye type: 0.1% v/v trifluoroacetic acid in ethanol for 18, 20, 29, 34, 36, 70-72, 81-83, 93-95, 99-102, and 104; 0.1% v/v trifluoroacetic acid in 2,2,2^−trifluoroethanol for all other rhodamine variants. A accurate determination of low KL-Z values is complicated by the relatively poor sensitivity of absorbance measurements.

For data set [4], the system named is JM8·N4 mouse embryonic stem cells stably expressing histone H2B-HaloTag® fusion proteins. Briefly: Single-particle tracking (SPT) experiments. It counts as cell-based. Conditions: for performance in SPT experiments compared with 1HTL and 89HTL: HaloTag® ligands, 50 Hz imaging. Here is the method:
SPT experiments were carried out as previously described.^84 JM8·N4 mouse embryonic stem cells (ESCs) stably expressing histone H2B-HaloTag® fusion proteins were generated by co-expressing the PiggyBac EF1a-H2B-HaloTag®-IRES-Neo vector with the super piggyBac transposase as described previously,85 followed by G418 selection (500 μg/mL) for 2 weeks and verified by FACS sorting/confocal imaging staining with JF549-HaloTag® ligand (84HTL; 100 nM, 30 min). Cells were seeded on 25 mm #1.5 coverglass pre-cleaned with KOH and ethanol and coated with iMatrix-511 (TaKaRa #T304) or rhLaminin-521 (Gibco™ #A^29248) according to the manufacturers' instruction. All live-cell imaging experiments were conducted using an ESC imaging medium composed of FluoroBrite DMEM (ThermoFisher) plus 15% v/v ESC-qualified FBS, 1× GlutaMax, 1×NEAA, 0.1 mM 2^−mercaptoethanol, and LIF. For comparison of 59HTL and 89HTL (FIG. 13E, 13F) the histone H2B-HaloTag® ESCs were stained with 5 nM 59HTL for 1 h or 0.1 nM 89HTL for 15 min at 37° C. with 5% (v/v) CO2 to achieve sparse labeling with approximately equal localizations per region of interest (ROI), and then washed with dye-free media 3× for 30 min each wash For comparison of 40HTL, 44HTL, 1HTL, or 89HTL (FIG. 12A-12G) the histone H2B-HaloTag® ESCs were stained with 1 nM of HaloTag® ligands for 15 min at 37° C. with 5% (v/v) CO2 to achieve sparse labeling, and then washed with dye-free media 3× for 30 min each wash.
To quantify the brightness and photostability of the HaloTag® ligands, labeled cells were mounted onto a high speed motorized Nikon Eclipse Ti-E inverted microscope equipped with the following: 100× Apo TIRF 1.49 NA objective with a correction collar; four excitation laser lines (405/488/561/642 nm) and matching TIRF quad cube (405/488/561/640 nm reflection bands); automatic TIRF illuminator with motorized X axis and manual Y axis for beam positioning and focus: perfect focus 3 system; Triple DU-897 iXon Ultra EMCCD cameras on a Cairn Tri-cam emission splitter with filters 525/50 (GFP) 600/50 (RFP) and 705/72 (Cy5); humidified incubation chamber maintained at 37° C. with 5% v/v CO2 (Tokai Hit). SPT was performed at 100 Hz for the comparison of 59HTL and 89HTL (FIG. 13E, 13F) and 50 Hz for the comparison of 40HTL, 44HTL, 1HTL, or 89HTL (FIG. 12A-12G); the imaging session was performed for ˜5000 frames using 100% of maximal excitation power (˜120 mW at the fiber end before the TIRF unit). […] For the comparison of HaloTag® ligands 59HTL and 89HTL (FIG. 13E, 13F) and the comparison of compounds 40HTL, 44HTL, 1HTL, and […] (FIG. 12A-12G), the fluorophores were excited with a 647 nm laser. To minimize drift during imaging, the incubation chamber was fully thermally equilibrated, and all imaging was conducted in an isolated ultra-clean room with minimal mechanical vibrations. The microscope, laser lines, and camera integration were controlled using the Nikon NIS-Elements software. Cells with obvious movement during acquisition were removed from further analysis. SMT analysis was based on multiple target tracing 86 (MTT) with tracking parameters similar to previous work.^84 For SPT brightness (photon counts/molecule/s), intensity values from sparsely-labeled molecules were analyzed. For the comparison of HaloTag® ligands 59HTL and 89HTL (FIG. 13E, 13F): n=147,298 single-molecule events using 59HTL; n=100,392 single-molecule events using 89HTL. […]

The conditions of data set [5]: rhodamine derivatives; 1:1 dioxane:H2O; data from the inventors' published work; cited from earlier work.
For data set [6] the following is noted: rhodamine derivatives; 10 mM HEPES, pH 7.3; data from the inventors' published work; cited from earlier work.
For data set [7] the following is noted: rhodamine derivatives; 10 mM HEPES, pH 7.3; data from the inventors' published work; cited from earlier work. This is another data set of the same source.
Data set [8] has as its system U2OS cells stably expressing HaloTag®-histone H2B fusion protein. Put plainly: Loading experiments with NIR-excited HaloTag® ligands (nuclear fluorescence). Conditions: 200 nM; live cells expressing HaloTag®-histone H2B. Type of data set: cell-based. Here is the method:
U2OS cells (ATCC) and U2OS cells stably expressing an integrated HaloTag®-histone H2B fusion protein (U2OS·H2B·HaloTag®) were cultured in Dulbecco's modified Eagle medium (DMEM, phenol red-free; Life Technologies) supplemented with 10% (v/v) fetal bovine serum (FBS, Life Technologies), 1 mM GlutaMAX (Life Technologies) and maintained at 37° C. in a humidified 5% (v/v) CO2 environment. These cell lines undergo regular mycoplasma testing by the Janelia Cell Culture Facility. For mitochondrial imaging using the HaloTag® system, U2OS cells were transiently transfected using nucleofection (Lonza) with a plasmid constitutively expressing a HaloTag®-TOMM20 fusion protein, which is located on the outer mitochondrial membrane. For 4^−color imaging, U2OS·H2B·HaloTag® stable cells were transiently transfected by nucleofection with plasmids constitutively expressing a SNAP-tag®-TOMM20 fusion protein, and a GFP-SKL (SKL: serine-lysine-leucine) fusion protein, a prototypical peroxisomal matrix targeting signal. All labeled cells were imaged 18-24 h post-transfection or post-plating.
For loading curve experiments (FIG. 15C), U2OS·H2B·HaloTag® stable cells were incubated with 200 nM HaloTag® ligand conjugated dyes (31HTL, 36HTL, 38HTL, 104HTL, 106HTL, 107HTL, and 108HTL) for 0-4 h at 37° C., washed 3× with dye-free media then fixed with 4% paraformaldehyde in 0.1 M phosphate buffer, pH 7.4 for 15 min at 37° C. Confocal imaging was performed on a Leica Stellaris with an HC PL APO 40×/1.25 glycerol objective using the tunable white light laser (WLL) to excite dyes at their λabs in constant power mode. Fluorescence was quantified as the integrated density of nuclear signals in single-plane images analyzed in FIJI;^82 n=100 nuclear signals per compound.

Where two headings read alike, the source gives them in different places.

In data set [1], `[2H]C1([2H])N(c2ccc3c(c2)C(C)(C)C2=CC(=[N+]4C([2H])([2H])C([2H])([2H])C([2H])([2H])C4([2H])[2H])C=CC2=C3c2c(F)c(F)c(F)c(F)c2C(=O)[O-])C([2H])([2H])C([2H])([2H])C1([2H])[2H]` [compound 40, JFX637] registered a Φf of 0.56. Further, in data set [2], the ε is listed as 147,000 M^−1cm^−1 and the λabs was determined as 637 nm. This compound had a KL-Z in data set [3] of 6.12. In data set [4], the “performance in SPT experiments compared with 1HTL and 89HTL” value is “comparable performance”.

For “JFX650-HaloTag® ligand [89HTL, reference compound]”, the “SPT localizations over time” value in data set [4] (100 Hz imaging) was “relatively rapid bleaching”.

With `[2H]C1([2H])N(c2ccc3c(-c4ccccc4C(=O)[O-])c4ccc(=[N+]5C([2H])([2H])C([2H])([2H])C([2H])([2H])C5([2H])[2H])cc-4oc3c2)C([2H])([2H])C([2H])([2H])C1([2H])[2H]` [compound 87], the KL-Z in data set [5] is listed as 4.96. In data set [6], the Φf is recorded as 0.80. Besides, in data set [7], the λabs is reported as 554 nm and the λem is 576 nm.

With `CN1CCc2cc3c(cc21)[Si](C)(C)c1cc2c(cc1=C3c1c(F)c(C(=O)NCCOCCOCCCCCCCl)c(F)c(F)c1C(=O)[O-])CC[N+]=2C` [108HTL, SiRF712-HaloTag® ligand], in data set [8], the cellular intensity result is on record as “second highest cellular intensity”.

`[2H]C1([2H])N(c2ccc3c(c2)C(C)(C)C2=CC(=[N+]4C([2H])([2H])C([2H])([2H])C([2H])([2H])C4([2H])[2H])C=CC2=C3c2ccccc2C(=O)[O-])C([2H])([2H])C([2H])([2H])C1([2H])[2H]` [compound 88]: in data set [5], the KL-Z is listed as 0.880. The Φf in data set [6] is given as 0.70. Also, in data set [7], the ε is on record as 130,000 M^−1cm^−1, the λabs is listed as 612 nm and the λem is 633 nm.

For `CC1(C)C2=CC(=N)C=CC2=C(c2ccccc2C(=O)O)c2ccc(N)cc21` [compound 82], the KL-Z in data set [5] was 0.0127. Further, the Φf in data set [6] is reported as 0.64. In data set [7], the ε is reported as 65,000 M^−1cm^−1, the λabs is 552 nm and the λem was 577 nm.

For `CC1=CC(C)(C)N(C)c2cc3c(cc21)C(c1c(F)c(C(=O)NCCOCCOCCCCCCCl)c(F)c(F)c1C(=O)[O-])=c1cc2c(cc1[Si]3(C)C)=[N+](C)C(C)(C)C=C2C` [38HTL, 4^−((2^−(2^−((6^−Chlorohexyl)oxy)ethoxy)ethyl)carbamoyl)-2^−(1,2,2,4,8,10,10,11,13,13-decamethyl-2,10,11,13^−tetra-hydrosilino[3,2^−g:5,6^−g′]diquinolin-6^−ylium-6(1H)-yl)-3,5,6-trifluorobenzoate], the cellular intensity entry in data set [8] was “relatively low intensity”.

With `CC1(C)C2=CC(=[N+]3CCC3)C=CC2=C(c2c(F)c(F)c(F)c(F)c2C(=O)[O-])c2ccc(N3CCC3)cc21` [compound 44, JF632], the Φf in data set [1] turned out to be 0.54. Also, in data set [2], the ε is recorded as 139,000 M^−1cm^−1, the λabs was found to be 632 nm and the λem is reported as 649 nm. The KL-Z in data set [3] is given as 3.59. The “performance in SPT experiments compared with 1HTL and 89HTL” value in data set [4] is “comparable performance”.

For the compound `N=c1ccc2c(-c3ccccc3C(=O)O)c3ccc(N)cc3oc-2c1` [compound 81], the KL-Z in data set [5] is recorded as 2.53. Moreover, in data set [6], the Φf is given as 0.88. Moreover, in data set [7], the ε is recorded as 75,000 M^−1cm^−1, the λabs is listed as 487 nm and the λem is 520 nm.

Consider `CC1(C)c2cc(N3CCC3)ccc2C2(OC(=O)c3ccccc32)c2ccc(N3CCC3)cc21` [compound 86, JF608], for which, in data set [5], the KL-Z is 0.0911. In addition, the Φf in data set [6] is 0.67. For the same compound, in data set [7], the ε was 99,000 M^−1cm^−1, the λabs is recorded as 608 nm and the λem is 631 nm.
